Reference: ChEMBL document CHEMBL1149991, “Benzofuran based angiotensin II antagonists related to GR117289: enhancement of potency in vitro and oral activity” (Bioorg Med Chem Lett, 1993)

Biological target: T1, Type-1 angiotensin II receptor (Oryctolagus cuniculus) (UniProt P34976)
T1 sequence (whole entry): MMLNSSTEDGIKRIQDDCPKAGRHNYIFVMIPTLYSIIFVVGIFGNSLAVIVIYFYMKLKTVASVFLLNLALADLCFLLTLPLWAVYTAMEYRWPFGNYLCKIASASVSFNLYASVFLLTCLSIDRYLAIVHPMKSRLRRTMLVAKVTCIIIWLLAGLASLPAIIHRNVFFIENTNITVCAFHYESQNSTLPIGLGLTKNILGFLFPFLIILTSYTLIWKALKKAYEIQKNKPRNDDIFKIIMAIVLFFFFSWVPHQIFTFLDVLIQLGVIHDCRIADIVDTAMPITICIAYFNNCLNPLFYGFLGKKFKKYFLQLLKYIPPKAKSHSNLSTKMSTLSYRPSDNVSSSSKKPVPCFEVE
Assay: In vitro for its antagonistic activity against angiotensin II type 1 receptor in Rabbit Aorta
Type: functional, tissue-based

Row | pKB | Structure (SMILES)
1 | 6.4 | CCCCc1nc(Cl)c(C(=O)O)n1Cc1ccc2oc(-c3ccccc3-c3nnn(C)n3)c(Br)c2c1
2 | < 6 | CCCCc1nc(Cl)c(C(=O)O)n1Cc1ccc2oc(-c3ccccc3C#N)c(Br)c2c1
3 | 8.8 | CCCCc1nc(Cl)c(CNC(N)=O)n1Cc1ccc2oc(-c3ccccc3-c3nn[nH]n3)c(Br)c2c1
4 | 7.8 | CCCCc1nc(Cl)c(C(=O)O)n1Cc1ccc2oc(-c3ccccc3NS(=O)(=O)C(F)(F)F)c(Br)c2c1
5 | 10 | CCCCc1nc(Cl)c(C(=O)O)n1Cc1ccc2oc(-c3ccccc3-c3nn[nH]n3)c(C(F)(F)F)c2c1
6 | 7.3 | CCCCc1nc(Cl)c(C(=O)O)n1Cc1ccc2oc(-c3ccccc3-c3nnnn3C)c(Br)c2c1
7 | 9.8 | CCCCc1nc(Cl)c(CC(=O)O)n1Cc1ccc2oc(-c3ccccc3-c3nn[nH]n3)c(Br)c2c1
8 | 8.8 | CCCCc1nc(Cl)c(C(=O)N(C)C)n1Cc1ccc2oc(-c3ccccc3-c3nn[nH]n3)c(Br)c2c1
9 | 8.8 | CCCCc1nc(Cl)c(C(=O)O)n1Cc1ccc2oc(-c3ccccc3C(=O)Nc3nn[nH]n3)c(Br)c2c1
10 | 9.6 | CCCCc1nc(Cl)c(C(=O)O)n1Cc1ccc2oc(-c3ccccc3-c3nn[nH]n3)c(OC)c2c1
11 | 9 | CCCCc1nc(Cl)c(C(N)=O)n1Cc1ccc2oc(-c3ccccc3-c3nn[nH]n3)c(Br)c2c1
12 | 7.8 | CCCCc1nc(Cl)c(C(=O)O)n1Cc1ccc2oc(-c3ccccc3C(=O)OCC)c(Br)c2c1
13 | 7.2 | CCCCc1nc(Cl)c(C(=O)O)n1Cc1ccc2oc(-c3ccccc3C(N)=O)c(Br)c2c1
14 | 9.2 | CCCCc1nc(Cl)c(C(=O)NC)n1Cc1ccc2oc(-c3ccccc3-c3nn[nH]n3)c(Br)c2c1
15 | 8.3 | CCCCc1nc(Cl)c(C(=O)OCC)n1Cc1ccc2oc(-c3ccccc3-c3nn[nH]n3)c(Br)c2c1
16 | 8.3 | CCCCc1nc(Cl)c(C(=O)O)n1Cc1ccc2oc(-c3ccccc3-c3nn[nH]n3)c(C(C)(C)C)c2c1
17 | 10.5 | CCCCc1nc(Cl)c(C(=O)O)n1Cc1ccc2oc(-c3ccccc3-c3nn[nH]n3)c(Cl)c2c1
